Assay results as given in US20260152487A1 (Sitryx Therapeutics Limited, priority 2021, published 2026).
pEC50, pIC50: −log10 of the molar value.

Tests used:
A549 cells = test: A549 cell proliferation in low-serine medium (CellTiter-Glo 2.0 viable cell number); format: cell-based; conditions: Homo sapiens, 72 h, 3 days, Assay Medium with 20 μM L-serine
Outline: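 A549 cells (600/well) were plated overnight and then exposed for 3 days at 37 °C to compound in Basal Medium Eagle with 3% dialysed FBS, 2 mM glutamine and 20 μM L-serine. Viable cell number was read by CellTiter-Glo luminescence and normalized to time-zero and DMSO controls. IC50 came from a 4-parameter logistic fit.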

recombinant human PKM2 = target: T1, recombinant human PKM2 (Homo sapiens, UniProt P14618); test: Human PKM2 activation assay (Kinase-Glo Plus luminescent detection of generated ATP); format: biochemical; conditions: for Emax: percentage activation normalised to DMSO vehicle (LOW) and 5 μM TEPP-46 (HIGH), read-out: hPKM2 Emax; for pEC50: recombinant human PKM2 activation, 4-parameter logistic fit, read-out: hPKM2 EC50
T1 construct: His (N); purchased R&D Systems
Outline: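 N-His-tagged recombinant hPKM2 ([…]) with PEP and ADP was incubated with compound for 60 min at 26 °C, shaking, in 50 mM imidazole, 50 mM KCl, 7 mM MgCl2, 0.01% Tween20, 0.05% BSA, pH 7.2. ATP produced was read by Kinase-Glo Plus luminescence after 15 min.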

recombinant human PKLR = target: T2, recombinant human PKLR (Homo sapiens, UniProt P30613); test: Human PKLR activation assay (Kinase-Glo Plus luminescent detection of generated ATP); format: biochemical; conditions: for pEC50: activation of recombinant human PKLR, 4-parameter logistic fit, read-out: hPKLR EC50; for Emax: percentage activation normalised to DMSO vehicle (LOW) and 5 μM TEPP-46 (HIGH) controls, read-out: hPKLR Emax (%)
T2 construct: His (N); purchased R&D Systems
T2 sequence (P30613 whole entry): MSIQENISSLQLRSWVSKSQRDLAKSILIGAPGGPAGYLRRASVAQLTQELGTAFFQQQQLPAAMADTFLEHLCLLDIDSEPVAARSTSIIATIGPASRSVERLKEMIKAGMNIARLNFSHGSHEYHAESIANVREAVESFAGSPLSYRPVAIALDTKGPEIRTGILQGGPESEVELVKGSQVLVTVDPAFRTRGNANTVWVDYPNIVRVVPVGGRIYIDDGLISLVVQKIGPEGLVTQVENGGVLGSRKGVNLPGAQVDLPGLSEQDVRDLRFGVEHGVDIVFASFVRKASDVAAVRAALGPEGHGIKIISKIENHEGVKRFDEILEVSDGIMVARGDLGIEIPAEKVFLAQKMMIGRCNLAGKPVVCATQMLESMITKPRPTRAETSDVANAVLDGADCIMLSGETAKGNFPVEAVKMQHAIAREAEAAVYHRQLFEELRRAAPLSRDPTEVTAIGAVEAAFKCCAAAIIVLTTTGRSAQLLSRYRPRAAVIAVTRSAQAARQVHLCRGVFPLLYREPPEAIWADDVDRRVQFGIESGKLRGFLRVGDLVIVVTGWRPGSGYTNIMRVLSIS

T1 sequence (P14618 2-531 limits assumed): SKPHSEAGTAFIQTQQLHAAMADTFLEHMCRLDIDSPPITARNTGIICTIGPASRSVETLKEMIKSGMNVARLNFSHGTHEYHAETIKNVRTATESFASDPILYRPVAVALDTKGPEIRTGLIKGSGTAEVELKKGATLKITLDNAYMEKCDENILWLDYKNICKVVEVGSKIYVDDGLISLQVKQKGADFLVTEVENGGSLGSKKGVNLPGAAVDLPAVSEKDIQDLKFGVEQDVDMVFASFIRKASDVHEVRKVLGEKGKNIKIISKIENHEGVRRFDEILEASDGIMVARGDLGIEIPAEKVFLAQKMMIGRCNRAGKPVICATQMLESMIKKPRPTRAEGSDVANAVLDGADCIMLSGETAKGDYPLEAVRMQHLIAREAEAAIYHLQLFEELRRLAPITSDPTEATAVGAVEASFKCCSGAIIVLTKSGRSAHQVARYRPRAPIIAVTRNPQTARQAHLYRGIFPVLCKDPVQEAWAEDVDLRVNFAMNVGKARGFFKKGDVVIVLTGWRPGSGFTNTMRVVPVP

| pIC50 (A549 cells) | Emax (recombinant human PKM2) | pEC50 (recombinant human PKM2) | pEC50 (recombinant human PKLR) | Emax (recombinant human PKLR) | SMILES |
| --- | --- | --- | --- | --- | --- |
| 8.66 | 112% | 7.34 | 8.51 | 142% | COc1ccc(S(=O)(=O)c2ccc3c(=O)n(Cc4cc(C)[nH]n4)ncc3c2)cc1 [Example 54, 6-((4-methoxyphenyl)sulfonyl)-2-((5-methyl-1H-pyrazol-3-yl)methyl)phthalazin-1(2H)-one] |
| 8.82 | 115% | 7.40 | 8.28 | 149% | Nc1cccc(Cn2ncc3cc(S(=O)(=O)c4ccccc4)ccc3c2=O)n1 [Example 38, 2-((6-aminopyridin-2-yl)methyl)-6-(phenylsulfonyl)phthalazin-1(2H)-one] |
| 8.92 | 129% | 7.56 | 8.33 | 159% | COc1ccc(S(=O)(=O)c2ccc3c(=O)n(Cc4ccn(C5CC5)n4)ncc3c2)cc1 [Example 1, 2-((1-cyclopropyl-1H-pyrazol-3-yl)methyl)-6-((4-methoxyphenyl)sulfonyl)phthalazin-1(2H)-one] |
| 8.70 | 111% | 7.38 | 7.80 | 109% | COc1ccc(Cn2ncc3cc(S(=O)(=O)c4ccccc4)ccc3c2=O)cn1 [Example 41, 2-((6-methoxypyridin-3-yl)methyl)-6-(phenylsulfonyl)phthalazin-1(2H)-one] |
| 8.44 | 110% | 7.00 | 7.47 | 122% | Cn1ccc(Cn2ncc3cc(S(=O)(=O)c4ccccc4)ccc3c2=O)n1 [Example 60, 2-((1-methyl-1H-pyrazol-3-yl)methyl)-6-(phenylsulfonyl)phthalazin-1(2H)-one] |
| 8.46 | 99.9% | 7.52 | 7.85 | 117% | O=c1c2ccc(S(=O)(=O)c3ccccc3)cc2cnn1Cc1ccn(C2CC2)n1 [Example 73, 2-((1-cyclopropyl-1H-pyrazol-3-yl)methyl)-6-(phenylsulfonyl)phthalazin-1(2H)-one] |
| 8.66 | 117% | 7.15 | 7.77 | 134% | O=c1c2ccc(S(=O)(=O)c3ccccc3)cc2cnn1Cc1cc[nH]n1 [Example 68, 2-((1H-pyrazol-3-yl)methyl)-6-(phenylsulfonyl)phthalazin-1(2H)-one] |
| 8.52 | 106% | 7.25 | 8.00 | 139% | Cc1cc(Cn2ncc3cc(S(=O)(=O)c4ccccc4)ccc3c2=O)nn1C [Example 90, 2-((1,5-dimethyl-1H-pyrazol-3-yl)methyl)-6-(phenylsulfonyl)phthalazin-1(2H)-one] |
| 8.77 | 98% | 7.28 | 8.00 | 131% | COc1ccc(S(=O)(=O)c2ccc3c(=O)n(Cc4cccnc4O)ncc3c2)cc1 [Example 56, 2-((2-hydroxypyridin-3-yl)methyl)-6-((4-methoxyphenyl)sulfonyl)phthalazin-1(2H)-one] |
| 8.66 | 108% | 7.32 | 7.94 | 137% | Cc1cccc(Cn2ncc3cc(S(=O)(=O)c4ccccc4)ccc3c2=O)n1 [Example 75, 2-((6-methylpyridin-2-yl)methyl)-6-(phenylsulfonyl)phthalazin-1(2H)-one] |
| 8.48 | 116% | 7.20 | 8.03 | 128% | Cc1cc(Cn2ncc3cc(S(=O)(=O)c4ccccc4)ccc3c2=O)n[nH]1 [Example 96, 2-((5-methyl-1H-pyrazol-3-yl)methyl)-6-(phenylsulfonyl)phthalazin-1(2H)-one] |
| 8.77 | 101% | 7.29 | 8.02 | 135% | Cc1cn(C)nc1Cn1ncc2cc(S(=O)(=O)c3ccccc3)ccc2c1=O [Example 89, 2-((1,4-dimethyl-1H-pyrazol-3-yl)methyl)-6-(phenylsulfonyl)phthalazin-1(2H)-one] |
